This is an account of results in ChEMBL document CHEMBL4814046, “Inhibitory effects and mechanism of antifungal action of the natural cyclic depsipeptide, aureobasidin A against Cryptococcus neoformans” (Bioorg Med Chem Lett, 2021).

The MFC is the lowest tested concentration that kills the fungus rather than only halting it. Low readings indicate more potent killing, high ones less potent killing. Usually MIC stands for the lowest concentration found to suppress growth. In general, inhibition refers to the drop in the measured response relative to a control, in per cent. Higher therefore signals strong suppression.

Data set [1] has as its system Cryptococcus neoformans. Briefly: Antifungal activity against Cryptococcus neoformans PFCC 93-589 assessed as increase in extracellular potassium leakage at 2 times MIC incubated up to 12 hrs measured per mg dry weight of cell by spectrophotometric method. The data set is classed as functional. The settings on record: time hrs <=12.
The test system of data set [2] is Cryptococcus neoformans. Put plainly: Fungicidal activity against Cryptococcus neoformans PFCC 93-589 by broth microdilution assay. The format is functional. (Dilution methods test growth across graded concentrations, often in twofold steps.)
The subject of data set [3] is Cryptococcus neoformans. Put plainly: Antifungal activity against Cryptococcus neoformans PFCC 93-589 assessed as half minimum inhibitory concentration by broth microdilution assay. The data set is classed as functional.
Data set [4] concerns Cryptococcus neoformans. Briefly: Antifungal activity against Cryptococcus neoformans PFCC 93-589 by broth microdilution assay. The data set is classed as functional.
Data set [5] in a line: Hemolytic activity in human RBC at 4 ug/ml incubated for 30 mins. The data set is classed as cell-based, Erythrocyte. The settings on record: red blood cells (erythrocytes), at 4 µg/mL, read-out: Activity.
In data set [6] the test system is Cryptococcus neoformans. Briefly: Antifungal activity against Cryptococcus neoformans PFCC 93-589 assessed as TOS production at 2 times MIC incubated for 10 mins measured per mg of protein by colorimetric method (reference value: 1.63 umol). The format is functional.
The subject of data set [7] is Cryptococcus neoformans. Put plainly: Induction of morphological changes in Cryptococcus neoformans PFCC 93-589 assessed as deposition of lipid globules at 2 ug/ml after 48 hrs by TEM analysis. The data set is classed as functional, organism-based. The settings on record: dose 2.0 µg/ml.
For data set [8], the system named is Cryptococcus neoformans. Put plainly: Induction of morphological changes in Cryptococcus neoformans PFCC 93-589 assessed as excessive vacuolization at 2 ug/ml after 48 hrs by TEM analysis. The settings on record: dose 2.0 µg/ml. The data set is classed as functional, organism-based.
Data set [9] concerns Cryptococcus neoformans. Put plainly: Upregulation of Lac1 gene expression in Cryptococcus neoformans PFCC 93-589 assessed as fold increase in […] at 2 ug/ml by SYBR green based RT-PCR analysis. The settings on record: dose 2.0 µg/ml. The format is functional.
Data set [10] relates to Pichia kudriavzevii. Briefly: Antifungal activity against Candida krusei incubated for 24 hrs by broth microdilution method. The format is functional.
Data set [11] has as its system Candida parapsilosis. Put plainly: Antifungal activity against Candida parapsilosis incubated for 24 hrs by broth microdilution method. The format is functional. The settings on record: Lodderomyces parapsilosis.
The test system of data set [12] is Cryptococcus neoformans. Put plainly: Antifungal activity against Cryptococcus neoformans PFCC 93-589 after 7 days in presence of sorbitol by microdilution assay. The settings on record: PFCC 93-589, 168 h, time 7 day. The data set is classed as functional.
In data set [13] the test system is Cryptococcus neoformans. Put plainly: Downregulation of Cxt1p gene expression in Cryptococcus neoformans PFCC 93-589 assessed as fold decrease in […] at 2 ug/ml by SYBR green based RT-PCR analysis. The data set is classed as functional. The settings on record: dose 2.0 µg/ml.
Data set [14] can be described thus: Cytotoxicity against human HEK293 cells assessed as inhibition of cell viability at 2 times MIC incubated for 24 hrs by MTT assay. The format is cell-based. The settings on record: at 8 µg/mL, read-out: INH. In general terms: Tetrazolium dyes change colour on reduction, which living cells bring about.
In data set [15] the test system is Cryptococcus neoformans. Briefly: Downregulation of Cxt1p gene expression in Cryptococcus neoformans PFCC 93-589 at 2 ug/ml by SYBR green based RT-PCR analysis relative to control. The format is functional. The settings on record: dose 2.0 µg/ml.
Data set [16] has as its system Nakaseomyces glabratus. Briefly: Antifungal activity against Candida glabrata incubated for 24 hrs by broth microdilution method. The data set is classed as functional.
Data set [17] relates to Cryptococcus neoformans. Briefly: Antifungal activity against Cryptococcus neoformans PFCC 93-589 assessed as inhibition of melanin production at 0.5 times MIC incubated for 2 to 10 days. The settings on record: time 2-10 day. The data set is classed as functional, organism-based.
Data set [18] relates to Cryptococcus neoformans. Briefly: Antifungal activity against Cryptococcus neoformans PFCC 93-589 after 2 days in presence of sorbitol by microdilution assay. The format is functional. The settings on record: PFCC 93-589, 48 h, time 2 day.
Data set [19] deals with Cryptococcus neoformans. Put plainly: Inhibition of ergosterol biosynthesis in Cryptococcus neoformans PFCC 93-589 cell membrane at 0.5 times MIC incubated for 48 hrs by UV-visible spectrophotometric analysis. The format is functional, cell membranes.
Data set [20] can be described thus: Hemolytic activity in human RBC at 8 ug/ml incubated for 30 mins. The settings on record: red blood cells (erythrocytes), at 8 µg/mL, read-out: Activity. The format is ADME, cell-based, Erythrocyte.
Data set [21] concerns Cryptococcus neoformans. Put plainly: Induction of morphological changes in Cryptococcus neoformans PFCC 93-589 assessed as disorganization of cytoplasmic content at 2 ug/ml after 48 hrs by TEM analysis. The format is functional, organism-based. The settings on record: dose 2.0 µg/ml.
A short description of data set [22]: Cytotoxicity against human HEK293 cells assessed as cell survival at 0.5 times MIC incubated for 24 hrs by MTT assay. The format is cell-based. The settings on record: read-out: Activity.
The subject of data set [23] is Aspergillus flavus. Briefly: Antifungal activity against Aspergillus flavus incubated for 48 hrs by broth microdilution method. The data set is classed as functional.
For data set [24], the system named is Cryptococcus neoformans. Briefly: Inhibition of ergosterol biosynthesis in Cryptococcus neoformans PFCC 93-589 cell membrane at 1 times MIC incubated for 48 hrs by UV-visible spectrophotometric analysis. The format is functional, cell membranes.
Data set [25] deals with Cryptococcus neoformans. Briefly: Synergistic antifungal activity against Cryptococcus neoformans PFCC 93-589 assessed as fractional inhibitory concentration index in presence of fluconazole by checkerboard microtiter assay. The data set is classed as functional.
The test system of data set [26] is Candida tropicalis. Put plainly: Antifungal activity against Candida tropicalis incubated for 24 hrs by broth microdilution method. The data set is classed as functional.
Data set [27] deals with Cryptococcus neoformans. Put plainly: Antifungal activity against Cryptococcus neoformans PFCC 93-589 in presence of fluconazole by checkerboard microtiter assay. The data set is classed as functional.
Data set [28] in a line: Hemolytic activity in human RBC at 1 ug/ml incubated for 30 mins. The format is ADME, cell-based, Erythrocyte. The settings on record: red blood cells (erythrocytes), at 1 µg/mL, read-out: Activity.
Data set [29] can be described thus: Hemolytic activity in human RBC at 0.5 ug/ml incubated for 30 mins. The format is ADME, cell-based, Erythrocyte. The settings on record: red blood cells (erythrocytes), at 0.5 µg/mL, read-out: Activity.
In data set [30] the test system is Cryptococcus neoformans. Briefly: Antifungal activity against Cryptococcus neoformans PFCC 93-589 assessed as TOS production at 0.5 times MIC incubated for 10 mins measured per mg of protein by colorimetric method (reference value: 1.04 umol). The format is functional.
Data set [31] can be described thus: Cytotoxicity against human HEK293 cells assessed as cell survival at 1 times MIC incubated for 24 hrs by MTT assay. The settings on record: read-out: Activity. The format is cell-based.
Data set [32] can be described thus: Cytotoxicity against human HEK293 cells assessed as cell survival at 0.25 times MIC incubated for 24 hrs by MTT assay. The settings on record: read-out: Activity. The format is cell-based.
Data set [33] in a line: Hemolytic activity in human RBC at 2 ug/ml incubated for 30 mins. The data set is classed as ADME, cell-based, Erythrocyte. The settings on record: red blood cells (erythrocytes), at 2 µg/mL, read-out: Activity.
The test system of data set [34] is Aspergillus niger. Briefly: Antifungal activity against Aspergillus niger incubated for 48 hrs by broth microdilution method. The format is functional.
For data set [35], the system named is Aspergillus fumigatus. Put plainly: Antifungal activity against Aspergillus fumigatus incubated for 48 hrs by broth microdilution method. The data set is classed as functional.
Data set [36] has as its system Cryptococcus neoformans. Put plainly: Inhibition of ergosterol biosynthesis in Cryptococcus neoformans PFCC 93-589 cell membrane assessed as ergosterol content at 1 times MIC incubated for 48 hrs by UV-visible spectrophotometric analysis (reference value: 0.134). The format is functional, cell membranes.
For data set [37], the system named is Cryptococcus neoformans. Briefly: Antifungal activity against Cryptococcus neoformans PFCC 93-589 assessed as TOS production at 1 times MIC incubated for 10 mins measured per mg of protein by colorimetric method (reference value: 1.19 umol). The data set is classed as functional.
Data set [38] has as its system Candida albicans. Put plainly: Antifungal activity against Candida albicans incubated for 24 hrs by broth microdilution method. The data set is classed as functional.
Data set [39] concerns Cryptococcus neoformans. Briefly: Antifungal activity against Cryptococcus neoformans PFCC 93-589 after 7 days in absence of sorbitol by microdilution assay. The data set is classed as functional. The settings on record: PFCC 93-589, 168 h, time 7 day.
Data set [40] has as its system Cryptococcus neoformans. Put plainly: Inhibition of ergosterol biosynthesis in Cryptococcus neoformans PFCC 93-589 cell membrane assessed as ergosterol content at 0.5 times MIC incubated for 48 hrs by UV-visible spectrophotometric analysis (reference value: 0.134). The data set is classed as functional, cell membranes.
Data set [41] deals with Cryptococcus neoformans. Put plainly: Antifungal activity against Cryptococcus neoformans PFCC 93-589 after 2 days in absence of sorbitol by microdilution assay. The format is functional. The settings on record: PFCC 93-589, 48 h, time 2 day.

≈ marks a conversion by molar mass, not a printed value. Calls of active or inactive are those of the source. The calls are words filed in the database; no cut-off is given here. *1 amine or outer side, *2 acyl side, *3 side chain or, on linkers, in order; H or OH if unused. Where a SMILES comes first, the peptide text is derived from it. [ ]: non-standard residue; d: D form. X1 = CC[C@@H](C)[C@@H](O[*:1])C(=O)[*:2]; NMeVal(β-OH) = CN[C@H](C(=O)O)C(C)(C)O; NMeF = CN[C@@H](Cc1ccccc1)C(=O)O; aIle = CC[C@@H](C)[C@H](N)C(=O)O; NMeV = CN[C@H](C(=O)O)C(C)C

As to `C[C@@H]1[C@H](O)[C@@H](C)/C=C/C=C/C=C/C=C/C=C/C=C/C=C/[C@H](O[C@@H]2O[C@H](C)[C@@H](O)[C@H](N)[C@@H]2O)C[C@@H]2O[C@](O)(C[C@@H](O)C[C@@H](O)[C@H](O)CC[C@@H](O)C[C@@H](O)CC(=O)O[C@H]1C)C[C@H](O)[C@H]2C(=O)O` [AMPHOTERICIN B], the Activity in [1] was determined as 3.56 mM. The compound also showed an MFC in [2] of 1 µg/mL (≈ 1.08 µM). Moreover, the MIC in data set [3] stood at 0.125 µg/mL (≈ 0.135 µM); in [4], 0.25 µg/mL (≈ 0.271 µM).
On to `CC[C@@H](C)[C@@H]1NC(=O)[C@@H]2CCCN2C(=O)[C@H](Cc2ccccc2)N(C)C(=O)[C@H](Cc2ccccc2)NC(=O)[C@H](C(C)C)N(C)C(=O)[C@@H]([C@H](C)CC)OC(=O)[C@H](C(C)(C)O)N(C)C(=O)[C@H](CC(C)C)NC(=O)[C@H](C(C)C)N(C)C1=O` [AUREOBASIDIN A] (cyclo(F[NMeF]P[aIle][NMeV]L[NMeVal(β-OH)][X1][NMeV])), for which the hemolysis at 0.5 h, 4 ug/ml in data set [5] was 1.35%. For the same compound, the Activity in [6] was found to be 3.09 nmol; in [1], 2.51 mM; in [30], 1.46 nmol; in [36], 0.078; in data set [37], 2.12 nmol; in data set [40], 0.095. Also, the result in data set [7], in data set [8], in data set [17] and in data set [21] was Active. The fold change (FC) came to 11.7 in [9] and 0.2 in data set [13]. Also, the MIC was less than 2000 µg/mL in [10]; less than 2000 µg/mL in data set [11]; 16 µg/mL in data set [12]; less than 2000 µg/mL in data set [16]; 8 µg/mL in data set [18]; more than 50 mg/mL in [23]. For the same compound, the MIC is less than 2000 µg/mL in [26]; 1 µg/mL in data set [27]; 2 µg/mL (≈ 1.82 µM) in data set [3]; 800 µg/mL (≈ 726 µM) in [34]; 4 µg/mL (≈ 3.63 µM) in data set [4]; more than 50 mg/mL in [35]. Moreover, the MIC is less than 2000 µg/mL in data set [38], 16 µg/mL (≈ 14.5 µM) in data set [39] and 8 µg/mL (≈ 7.26 µM) in data set [41]. Also, the cytotoxicity at 24 h, 2 times MIC in data set [14] is 40%. The inhibition in data set [15] was 80%; in data set [19], 29.1%; in data set [24], 41.8%. The same compound returned an MFC in [2] of 8 µg/mL (≈ 7.26 µM). The hemolysis at 0.5 h, 8 ug/ml in data set [20] turned out to be 2.4%. For the same compound, the viability at 24 h, 0.5 times MIC in [22] amounted to 89%. For the same compound, the “fractional inhibitory concentration index (FICI)” value in [25] came out at 0.26. Besides, in data set [28], the hemolysis at 0.5 h, 1 ug/ml came out at 0.31%. In data set [29], the hemolysis at 0.5 h, 0.5 ug/ml is 0%. In addition, the viability at 24 h, 1 times MIC in data set [31] turned out to be 75%. For the same compound, the viability at 24 h, 0.25 times MIC in data set [32] was 98%. Also, the hemolysis at 0.5 h, 2 ug/ml in [33] came out at 0.65%.
